Measured values reported in PubChem BioAssay AID179 (DTP/NCI, 2004).
Active and inactive are the calls of the source.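 The calls were made as follows: active = compounds giving half or more protection of infected cells from virus-caused growth loss, again on retest; inactive = the rest.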

Test system: CEM cells HIV-1 protection, formazan growth assay
Assay: NCI AIDS Antiviral Assay
Settings: for IC50: measured here: growth of uninfected CEM cells
Summary of the method: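 Five concentrations of each compound were applied to infected and uninfected human CEM cells. Protection from HIV-1 was judged from growth measured with a soluble formazan assay.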

Row | Compound | EC50 | IC50 | outcome
1 | Cc1cccc(C)c1NC(=O)C1C(=O)N(c2c(C)cccc2C)C(=O)/C1=N\NC(N)=S (stereo unspecified) | > 22.9 µM | > 22.9 µM | 
2 | COc1ccc(C(=CCC[C@H]2CC[C@@]3(C)[C@@H](CC[C@@H]4[C@@H]3CC[C@]3(C)[C@@H](C(C)CCCC(C)C)CC[C@@H]43)C2)c2ccc(OC)c(C(=O)O)c2)cc1C(=O)O (stereo partly specified) | > 200 µM | > 200 µM | 
3 | O=C(CSc1nc(-c2ccccc2)c(-c2ccccc2)[nH]1)N/N=C/c1ccc(Cl)cc1 | > 20.9 µM | 12 µM | 
4 | Cc1ccc(-n2c(=O)c3nn4c(=O)n(-c5ccc(C)cc5)c(=O)c4nn3c2=O)cc1 | > 200 µM | > 200 µM | 
5 | CCOC(=O)c1ccc(N2C(=O)/C(=C\OC)c3ccccc3C2=O)cc1 |  |  | inactive
6 | COC(=O)c1ccc(CCC2=CC(=O)C(Br)=CC2=O)cc1 | > 200 µM | 9.33 µM | 
7 | C[n+]1c(-c2ccc(/C=N\NC(=O)N/N=C/c3ccc(-c4cn5ccccc5[n+]4C)cc3)cc2)cn2ccccc21 | 36.3 µM | 47.9 µM | 
8 | O=C(NC(Cc1c[nH]c2ccccc12)C(=O)O)/C(=C/c1ccccc1)NC(=O)c1ccccc1 (stereo unspecified) | > 200 µM | 135 µM | 
9 | CC(C)CCC[C@@H](C)[C@H]1CC[C@H]2[C@@H]3CC=C4CC(OC(=O)OC5CCC6(C)CC7C=CC6(OO7)C5(C)C)CC[C@]4(C)[C@H]3CC[C@]12C (stereo partly specified) | > 100 µM | > 100 µM | 
10 | CN1c2ccccc2C(=O)NC12CCNCC2 | > 200 µM | > 200 µM | 
11 | CCOC(=O)C1C(=O)c2cccc(OC)c2C2COC(=O)N12 (stereo unspecified) | > 251 µM | 229 µM | 
12 | CCCCCCCCCCNCCSSCCNC(C)=O | > 200 µM | 5.37 µM | 
13 | N=C(N)N | > 1000 µM | > 1000 µM | 
14 | CC1(C)OCC(CO)(Nc2nc(N3CC3)nc(N3CC3)n2)CO1 | > 200 µM | 0.741 µM | 
15 | c1ccc([P+](CCOCC[P+](c2ccccc2)(c2ccccc2)c2ccccc2)(c2ccccc2)c2ccccc2)cc1 | > 200 µM | 49 µM | 
16 | CC(=O)OC12C=CC(=O)N1c1ccccc1C(=O)O2 (stereo unspecified) |  |  | inactive
17 | CCN(CC)[Se]c1ccccc1 |  |  | inactive
18 | CN(C)CCCOc1c(Br)cc(CCN(C)C)cc1Br |  |  | inactive
19 | CC1CN2CCc3c([nH]c4ccccc34)C2C[C@@H]1CC(=O)N(C)C (stereo partly specified) | > 191 µM | > 191 µM | 
20 | S=c1nc(Cc2ccc(Cl)cc2)[nH][nH]1 | > 200 µM | 56.2 µM | 
21 | COc1cc2c(cc1OC)C[N+]1(C)CCc3cc(OC)c(OC)cc3C1C2 (stereo unspecified) | > 501 µM | > 501 µM | 

Row | Compound | EC50 | IC50 | outcome
22 | CC1=C\[C@@H](O)CC(=O)Cc2nc(co2)C(=O)N2CCC=C2C(=O)O[C@H](C(C)C)[C@H](C)/C=C/C(=O)NC\C=C\1 | > 9.77 µM | > 9.77 µM | 
23 | CCOC(=O)[C@H]1Nc2ccc(Cl)cc2[C@H]2c3ccccc3O[C@H]21 | > 30.2 µM | > 30.2 µM | 
24 | Cc1cccc(C(C)(C)C)c1NC(=O)C(=O)C(c1cnc2ccccc2n1)[N+](=O)[O-] (stereo unspecified) | > 324 µM | 120 µM | 
25 | CN(C)c1nc(N(C)C)sc(=O)n1 |  |  | inactive
26 | CC(=O)NC1C(OCc2ccccc2)OC(CO)C(O)C1OCC(=O)N1CCCC1C(=O)N[C@@H](CCC(=O)NCCNCCNc1c2ccccc2nc2cccc([N+](=O)[O-])c12)C(N)=O (stereo partly specified) | > 100 µM | 1.51 µM | 
27 | CN/N=C(/c1nc2ccc([N+](=O)[O-])cc2[nH]c1=O)C(O)c1ccc(C(O)/C(=N\NC)c2nc3ccc([N+](=O)[O-])cc3[nH]c2=O)cc1 (stereo unspecified) | > 107 µM | 77.6 µM | 
28 | Cc1c(CCCl)c(=O)n2c([nH]c3ccccc32)c1C#N | > 200 µM | 7.59 µM | 
29 | CCOC(=O)Cc1nn2c(=O)cc(C)nc2s1 | > 200 µM | > 200 µM | 
30 | CCCCOC(=O)CCC(Nc1nc(Cl)nc(Cl)n1)C(=O)OCCCC (stereo unspecified) | > 200 µM | > 200 µM | 
31 | CCCCCCCC/C=C\CCCCCCCCOP(=O)(O)OCCC=C(c1cc(Cl)c(O)c(C(=O)O)c1)c1cc(Cl)c(O)c(C(=O)O)c1 | > 77.6 µM | 69.2 µM | 
32 | O=c1c(O)c(-c2cc(O)c(O)c(O)c2)oc2cc(O)cc(O)c12 | > 282 µM | 13.8 µM | 
33 | CN(C)C1(C(=O)O)CC1 | > 200 µM | > 200 µM | 
34 | C=C1CN(S(=O)(=O)c2ccc(C)cc2)CCCN(CC2CC=CCC2)CCCN(S(=O)(=O)c2ccc(C)cc2)C1 (stereo unspecified) | > 200 µM | 1.29 µM | 
35 | CN(C)c1ccc(/C=C/c2ccnc3ccccc23)cc1 | > 200 µM | 10.7 µM | 
36 | OC(c1ccccc1)C1CC2C=CC1C2 (stereo unspecified) |  |  | inactive
37 | CC(C)CCC[C@@H](C)[C@H]1CC[C@H]2[C@@H]3CC[C@H]4C[C@@H](CCC=C(c5cc(Cl)c(OCc6ccc(C(=O)O)cc6)c(C(=O)O)c5)c5cc(Cl)c(OCc6ccc(C(=O)O)cc6)c(C(=O)O)c5)CC[C@]4(C)[C@H]3CC[C@]12C | 2.51 µM | 50.1 µM | 
38 | NC1C2C(CC(=O)O)OCC=C3CN4CCC1(C(=O)C(=O)O)C4CC32 (stereo unspecified) | > 28.8 µM | > 28.8 µM | 
39 | Cc1ccccc1NC(=O)C1C(=O)N(c2ccccc2C)C(=O)/C1=N\N (stereo unspecified) |  |  | inactive
40 | c1ccc2c3c([nH]c2c1)C1CCCN1CC3 (stereo unspecified) | > 617 µM | 174 µM | 
41 | CCOC1NC(/N=C/c2ccc(OC)cc2)=C(C#N)C1C#N (stereo unspecified) | > 200 µM | 24.5 µM | 
42 | COc1cc(C2c3cc(O)c(OC)cc3C[C@@H]3C(=O)OCC23)ccc1O (stereo partly specified) | > 263 µM | > 263 µM | 

Row | Compound | EC50 | IC50 | outcome
43 | Oc1ccc2ccccc2c1CN1CCOCC1 | 132 µM | 186 µM | 
44 | COC(=O)[C@H](Cc1ccccc1)NC(=O)N(CCN(CCC#N)C(=O)N[C@H](C(=O)OC)C(C)C)c1ccccc1 | > 200 µM | 83.2 µM | 
45 | CC(C)(S)C(N)C(=O)O (stereo unspecified) | > 1660 µM | > 1660 µM | 
46 | COc1ccc(P2(=S)OC(C)(C)C(C)(C)O2)cc1 | > 200 µM | > 200 µM | 
47 | CCC(=O)OC1CCn2c1nc1c2C(=O)C(C)=C(N2CC2)C1=O (stereo unspecified) | > 200 µM | 0.575 µM | 
48 | C=C1C[C@@H]2O[C@H]3[C@H]4[C@@H](C[C@@H](C)[C@@H](OC(C)=O)[C@H]42)[C@@H](C)CO[C@@]3(C)[C@H](OC(=O)CCCCCCC)CC1=O | > 200 µM | 10 µM | 
49 | O=c1cc(-c2ccccc2)oc2cc(O)ccc12 | > 186 µM | 85.1 µM | 
50 | CCCCCCCCCc1ccc(Oc2ccc3c(c2)-c2nc-3nc3[nH]c(nc4nc(nc5[nH]c(n2)c2ccc(Oc6ccc(CCCCCCCCC)cc6)cc52)-c2cc(Oc5ccc(CCCCCCCCC)cc5)ccc2-4)c2ccc(Oc4ccc(CCCCCCCCC)cc4)cc32)cc1 | > 13.5 µM | > 13.5 µM | 
51 | COC(=O)C1Cc2c([nH]c3ccccc23)C(c2ccccc2O)N1 (stereo unspecified) |  |  | inactive
52 | CC(C)(C)OC(=O)NC(Cc1ccc([N+](=O)[O-])cc1)C(=O)NC(CCCCNC(=O)OCc1ccccc1)C(=O)ON1C(=O)CCC1=O (stereo unspecified) | > 200 µM | 56.2 µM | 
53 | CCOC(=O)C(NC(=O)CC(C)C)(N1CCN(c2cc3c(cc2F)c(=O)c(C(=O)O)cn3C2CC2)CC1)C(F)(F)F (stereo unspecified) | > 200 µM | 1.91 µM | 
54 | Nc1[nH][nH]c(=O)c1N=O | > 200 µM | > 200 µM | 
55 | COc1ccc(/C(C)=N/NC(=O)c2ccncc2)cc1OC | > 437 µM | > 437 µM | 
56 | O=C1CC2(C(=O)O1)C1C(=O)OC(=O)C1C1c3ccccc3C=NN12 (stereo unspecified) | > 692 µM | > 692 µM | 
57 | C/C(CC(=O)NCCc1ccccc1)=N\NC(=O)C[n+]1ccccc1 | > 95.5 µM | > 95.5 µM | 
58 | O=C1C(=O)c2ccccc2C(O)=C1CCCCCCCCC1CCCCC1 | > 200 µM | 12 µM | 
59 | CNc1[nH]c(=S)nc2sc3c(c12)CCCC3 | > 151 µM | 112 µM | 
60 | CC1CC(C)(C)N=C(C(C)CC(C)(C)C)O1 (stereo unspecified) | > 200 µM | 60.3 µM | 
61 | Cc1c(NC(=O)OCc2ccccc2)no[n+]1[O-] | > 550 µM | 129 µM | 
62 | O=S1(=O)c2ccccc2N(c2ccccc2)C2=NCCN21 | > 120 µM | > 120 µM | 
63 | CC(C)C(=S)N(C)O | > 18.6 µM | 0.302 µM | 

Row | Compound | EC50 | IC50 | outcome
64 | N#Cc1cc2c(n(C3OC(CO)C(O)C(O)C3O)c1=S)CCCCC2 (stereo unspecified) | > 200 µM | > 200 µM | 
65 | Nc1c(N=Nc2ccc(/C=C/c3ccc(N=Nc4cc(S(=O)(=O)O)c5cccnc5c4N)cc3S(=O)(=O)O)c(S(=O)(=O)O)c2)cc(S(=O)(=O)O)c2cccnc12 | > 4.68 µM | > 4.68 µM | 
66 | CN(C)C(=S)/N=c1\ssc(=S)n1C |  |  | inactive
67 | O=C1OC2(O)c3ccccc3C(=O)N2N2CCCCC12 (stereo unspecified) | > 646 µM | > 646 µM | 
68 | CC1=C(c2ccccc2)NC(=S)C(C)C(c2ccccc2)=N1 (stereo unspecified) | > 200 µM | 28.2 µM | 
69 | Cc1ccc2c(c1)C1C(CO2)C(c2ccccc2)=NN1c1ccccc1 (stereo unspecified) | > 105 µM | > 105 µM | 
70 | CC1OC(OCC2OC(Oc3c(-c4ccc(O)cc4)oc4cc(O)cc(O)c4c3=O)C(OC3OC(C)C(O)C(O)C3O)C(O)C2O)C(O)C(O)C1O (stereo unspecified) | > 339 µM | > 339 µM | 
71 | C=C1CC(C)(COc2ccc3c(C)cc(=O)oc3c2)OC1=O (stereo unspecified) | > 20 µM | 0.501 µM | 
72 | COc1cc(NC=O)c2c(c1)SCC(=O)N2 | > 200 µM | 135 µM | 
73 | N#C/C(=C\n1ccc(=O)[nH]c1=S)C(N)=O | > 200 µM | > 200 µM | 
74 | c1ccc(C2=NN2c2ccccc2)cc1 |  |  | inactive
75 | C1=NCCNCCN=Cc2ccc(cc2)OCc2cccc(n2)COc2ccc1cc2 | > 100 µM | > 100 µM | 
76 | COc1ccc(-c2nc(Sc3c([N+](=O)[O-])ncn3C)n[nH]2)cc1 | > 537 µM | 0.562 µM | 
77 | NC1=CN2c3ccccc3N(CC(=O)O)C2C=C1 (stereo unspecified) | > 200 µM | > 200 µM | 
78 | O=C1[C@@H]2C(c3ccncc3)=NO[C@@H]2C(=O)N1c1ccc(Cc2ccc(N3C(=O)[C@H]4C(c5ccncc5)=NO[C@H]4C3=O)cc2)cc1 | > 12 µM | > 12 µM | 
79 | CC(=O)O[C@H]1CCC(C)=CCC[C@@]2(C)C(CC[C@@H]2[C@@H](C)/C=C/C(C)C)c2ccc(cc2C(=O)O)C1 (stereo partly specified) |  |  | inactive
80 | CCc1ccc(/C(C#N)=C/c2ccc(N(C)CCC#N)cc2)cc1 | > 200 µM | 3.55 µM | 
81 | COc1c(C(=O)O)cccc1-c1cccc(C(=O)NCCN(CCNC(=O)c2cccc(-c3cccc(C(=O)O)c3OC)c2OC)CCNC(=O)c2cccc(-c3cccc(C(=O)O)c3OC)c2OC)c1OC | > 200 µM | > 200 µM | 
